Source: PMC6832239, “The Effects of a Novel Series of KTTKS Analogues on Cytotoxicity and Proteolytic Activity” (Molecules, 2019)
Entries after “also recorded” stand apart in the source; their conditions may differ. Where two headings read alike, the source gives them in different places. Residues, ends and D or L forms follow the SMILES beside them.

Tests used:
plasmin = biological target: T1, plasmin (Homo sapiens, UniProt P00747); experiment: Amidolytic activity of plasmin (chromogenic substrate H-D-Val-Leu-Lys-pNA); format: biochemical
T1 construct: purchased Chromogenix (Milano, Italy)
Description: (§1) The determination of amidolytic activity was performed as previously described by Okada. A detailed description of the method is given below: 0.2 mL of the examined peptides (0.15 M NaCl as contro), a buffer, and 0.1 mL of enzyme solution were mixed. The final peptide concentrations were: 0.2 mM, 2 mM, and 20 mM. The mixture was incubated at 37 °C for 3 min; then the synthetic substrate solution was added in the same buffer. After 20 min of incubation, the reaction was stopped by adding 0.1 mL of 50% acetic acid and the absorbance of the released p-nitroaniline was measured at 405 nm. The mean values from three independent experiments done in duplicate are presented. A method error of 5% was adopted as statistical error. IC50 value was considered as the concentration of inhibitor that reduces absorbance by 50%, compared with absorbance measured under the same conditions without an inhibitor. IC50 was calculated mathematically by extrapolation using a linear plot. IC50 values are presented in Table 1 and Table 2, and graphically in Figure 1.
(§2) The buffers and the enzyme solutions included: • Tris buffer—0.6 mL (pH 8.8), enzyme: urokinase (50 units/mL), synthetic substrate: pyro-Glu-Gly-Arg-pNA·HCl (0.1 mL, 3 mM); • Tris buffer—0.5 mL (pH 8.4), enzyme: thrombin (1 units/mL), synthetic substrate: H-D-Phe-Pip-Arg-pNA (0.2 mL, 0.75 mM); • Tris buffer—0.5 mL (pH 7.4), enzyme: plasmin (0.4 units/mL), synthetic substrate: H-D-Val-Leu-Lys-pNA (0.2 mL, 3 mM); • Borate buffer—0.5 mL (pH 7.5), enzyme: trypsin (0.4 units/mL), synthetic substrate: Bzl-L-Arg-pNA·HCl (0.2 mL, 8 mM); • Tris buffer—0.6 mL (pH 9.0), enzyme: kallikrein (3 units/mL), synthetic substrate: H-D-Val-Leu-Arg-pNA·2HCl (0.1 mL, 75 mM); • Tris buffer—0.6 mL (pH 8.4), enzyme: t-PA ([…]), synthetic substrate: H-D-Ile-Pro-Arg-pNA (0.1 mL, 10 mM) • Tris buffer—0.6 mL (pH 9.0), enzyme: chymotrypsin (0.4 units/mL), synthetic substrate: Suc-Phe-pNA (0.2 mL, 8 mM)

urokinase = biological target: T2, urokinase (Homo sapiens, UniProt P00749); experiment: Amidolytic activity of urokinase (chromogenic substrate pyro-Glu-Gly-Arg-pNA); format: biochemical; settings: for IC50: amidolytic activity, Tris pH 8.8, 37 °C, IC50 by extrapolation using a linear plot, error 5%, read-out: IC50 Urokinase
T2 construct: purchased Sigma (Schnelldorf, Germany)
Description: as §1, §2

thrombin = biological target: T3, thrombin (Bos taurus, UniProt P00735); experiment: Amidolytic activity of thrombin (chromogenic substrate H-D-Phe-Pip-Arg-pNA); format: biochemical
T3 construct: purchased Lubelska Wytwórnia Szczepionek (Lublin, Poland)
Description: The determination of amidolytic activity was performed as previously described by Okada. A detailed description of the method is given below: 0.2 mL of the examined peptides (0.15 M NaCl as contro), a buffer, and 0.1 mL of enzyme solution were mixed. The final peptide concentrations were: 0.2 mM, 2 mM, and 20 mM. The mixture was incubated at 37 °C for 3 min; then the synthetic substrate solution was added in the same buffer. […] The mean values from three independent experiments done in duplicate are presented. A method error of 5% was adopted as statistical error. […] IC50 was calculated mathematically by extrapolation using a linear plot.

[1] = Viability of fibroblast cells, MTT assay; format: cell-based, Human; settings: human, primary dermal fibroblast cells
Description: (§3) Viability of fibroblast cells was examined with the use of the MTT assay. MTT, a yellow tetrazole, is reduced to purple formazan only in living cells. Absorbance of the coloured solution was measured by a spectrophotometer.
(§4) These studies were performed on primary dermal fibroblasts cells. The cells were maintained in DMEM supplemented with 10% fetal bovine serum (FBS), 2 mM glutamin, 50 U/mL penicillin and […] streptomycin at 37 °C in a 5% CO2 incubator. For experiments, cells cultures were plated at a density of 1 × 10^6/well in six-well culture plates (Costar, St. Louis, MO, USA) in 2 mL of growth medium. Cells reached about 80% of confluency at day 2 were used for the assays.
(§5) Toxicity of the tested substances was determined using an MTT [3-(4,5-dimethylthiazol-2-yl)-2,5-diphenyltetrazolium bromide)] assay. Palmitoyl and lipoyl peptides were dissolved in DMSO (dimethyl sulfoxide), the other peptides in DMEM, and added to the cell culture medium. Simultaneously, the same concentrations of DMSO without peptides were added to cells, serving as controls. The final peptide concentrations were: 1 μM, 10 μM, and 100 μM. After 24 h incubation, the cells cultured with the tested compounds were washed with phosphate-buffered saline (PBS) and then incubated for 4 h in 2 mL of MTT solution (5 mg/mL). After removing the medium, the cells were lysed in 200 μL of DMSO with 20 μL of Sorensen’s buffer (pH 10.5, 0.1 mol/L glycine with 0.1 mol/L NaCl). The absorbance of converted dye in living cells was measured at a wavelength of 570 nm. The mean values ± SD from three independent experiments done in duplicate are presented.

[2] = system: primary dermal fibroblasts cells; experiment: Viability of fibroblast cells, MTT assay; format: cell-based, Human; settings: MTT, 1-100 μM, 24 h
Description: as §3, §4, §5

fibroblast cells = experiment: DNA biosynthesis, [3H] thymidine incorporation in fibroblasts; format: cell-based, Human; settings: 24 h, ± 2
Description: In the radioactive method of DNA measurement in the liquid sample, the radioactive activity of the sample was measured. This technique involves mixing a radioactive material with a scintillation fluid/liquid (which contains a scintillator), resulting in photon emission. This emission is counted by a suitable detector.
To examine the effect of the studied compounds on DNA biosynthesis of fibroblast cells, they were plated in 24-well tissue culture dishes at 1 × 10^5 cells per well with 1 mL of growth medium. The plates were incubated after 48 h with the examined peptides and 0.5 μCi of [^3H] thymidine (6.7 Ci/mmol) at 37 °C. The final peptide concentrations were: 10 μM, 50 μM, and 100 μM. After 24 h incubation, the cells were rinsed with PBS three times and twice with 5% trichloroacetic acid. To measure the radioactivity incorporated into DNA, the cells were solubilized with 1 mL of 0.1 M sodium hydroxide containing 1% SDS and an addition of scintillation liquid (9 mL) (https://www.perkinelmer.com/pl/category/scintillation-cocktails). Radioactivity was determined in a scintillation counter, i.e., Liquid Scintillation Analyzer Tri-Carb 2810 TR (Perkin Elmer, Waltham, MA USA)) with Quanto Smart TM software (Perkin Elmer).

Fibroblasts = experiment: Collagen biosynthesis, 5[3H]-proline incorporation in fibroblasts; format: cell-based, Human; settings: 24 h, ± 2
Description: In collagen biosynthesis assays cells were counted in a haemocytometer and incorporation of a radioactive precursor 5[^3H]-proline into collagen was measured. Total protein synthesis was calculated from the sum of radioactivity of collagenase-resistant proteins and collagen digest.
Fibroblasts were cultured in six-well plates until confluence. Then they were incubated for 24 h in growth medium in the absence or presence of the tested peptides and 5[^3H]-proline (5 µCi/mL, 28 Ci/mM). The final peptide concentrations were: 10 μM, 50 μM and 100 μM. In accordance with the method proposed by Peterkofsky and Diegelmann, incorporation of the radioactive precursor into collagen was determined by digesting the proteins with purified Clostridium histolyticum collagenase. Finally, the monolayers were washed with sterile 10mM PBS, pH 7.4 four times, and cell membranes were disrupted using a sonicator. Aliquots of the cell homogenate were removed for protein measurement using the BCA™ Protein Assay Kit (Pierce, Waltham, MA USA). The results are shown as combined values for cell plus medium fractions.

[3] = amidolytic activity, Tris pH 7.4, 37 °C, IC50 by extrapolation using a linear plot, error 5%, read-out: IC50 Plasmin
[4] = converted from IC50 of Table 1, read-out: -logIC50 Plasmin (converted)
[5] = amidolytic activity, Tris pH 8.4, 37 °C, IC50 by extrapolation using a linear plot, error 5%, read-out: IC50 Thrombin
[6] = 1 µmol/L, 24 h, MTT, ± 2, read-out: Viability of fibroblast cells
[7] = 10 µmol/L, 24 h, MTT, ± 2, read-out: Viability of fibroblast cells
[8] = 100 µmol/L, 24 h, MTT, ± 2, read-out: Viability of fibroblast cells

T1 sequence (P00747 581-810 limits assumed): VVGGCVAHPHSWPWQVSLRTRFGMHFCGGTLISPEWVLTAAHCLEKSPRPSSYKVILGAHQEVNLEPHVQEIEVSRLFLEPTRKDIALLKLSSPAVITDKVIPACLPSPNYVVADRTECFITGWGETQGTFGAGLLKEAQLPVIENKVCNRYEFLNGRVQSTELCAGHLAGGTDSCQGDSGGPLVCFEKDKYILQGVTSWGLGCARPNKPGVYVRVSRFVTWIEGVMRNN
T1 sequence (P00747 97-580 partner limits assumed): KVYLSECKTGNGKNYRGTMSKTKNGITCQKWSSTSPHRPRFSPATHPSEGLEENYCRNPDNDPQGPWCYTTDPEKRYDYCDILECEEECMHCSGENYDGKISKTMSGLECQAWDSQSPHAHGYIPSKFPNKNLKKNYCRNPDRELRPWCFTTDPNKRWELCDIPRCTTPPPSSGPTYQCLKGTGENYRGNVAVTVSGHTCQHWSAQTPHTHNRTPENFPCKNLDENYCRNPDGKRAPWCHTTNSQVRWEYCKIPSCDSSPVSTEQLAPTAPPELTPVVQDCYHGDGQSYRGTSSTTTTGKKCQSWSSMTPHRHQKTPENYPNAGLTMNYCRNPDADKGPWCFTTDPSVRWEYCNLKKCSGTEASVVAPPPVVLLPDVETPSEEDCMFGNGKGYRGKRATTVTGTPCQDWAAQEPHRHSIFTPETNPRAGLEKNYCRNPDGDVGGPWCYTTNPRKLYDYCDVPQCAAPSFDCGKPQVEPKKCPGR

Compound	IC50 (plasmin; [3]) [mM]	IC50 (urokinase) [mM]	IC50 (thrombin; [5]) [mM]	viability at 24 h, 1 µmol/L [1, 6] [%]	viability at 24 h, 10 µmol/L [1, 7] [%]	viability at 24 h, 100 µmol/L [1, 8] [%]	further results
H-KTTRS-NH2 [Peptide 13, H-Lys-Thr-Thr-Arg-Ser-NH2]	0.72 ± 0.036	17.6 ± 0.88	4.65 ± 0.233	121	139	145	IC50 (plasmin; [4]): 0.708 mM; cytotoxicity / cell growth effect on fibroblasts [2]: exhibited cell growth effects; also recorded: showed proliferative effect; also recorded: exhibited the effect of cell growth; DNA biosynthesis (fibroblast cells; 10 µmol/L): 84 % of Control; DNA biosynthesis (fibroblast cells; 50 µmol/L): 86 % of Control; DNA biosynthesis (fibroblast cells; 100 µmol/L): 74 % of Control; Collagen biosynthesis (Fibroblasts; 50 µmol/L): 155 % of Control; Collagen biosynthesis (Fibroblasts; 100 µmol/L): 49 % of Control
Ac-RTTKS-NH2 [Peptide 30, Ac-Arg-Thr-Thr-Lys-Ser- NH2]	5 ± 0.25	12.1 ± 0.6	1.59 ± 0.08	95	105	101	–
H-RTTKS-NH2 [Peptide 29, H-Arg-Thr-Thr-Lys-Ser-NH2]	0.3 ± 0.015	7.95 ± 0.4	2.43 ± 0.12	101	111	110	IC50 (plasmin; [4]): 0.309 mM
C[C@@H](O)[C@H](NC(=O)[C@H](CCCNC(=N)N)NC(=O)CCCCC1CCSS1)C(=O)N[C@H](C(=O)N[C@@H](CCCNC(=N)N)C(=O)N[C@@H](CO)C(N)=O)[C@@H](C)O (mixture of isomers) [Peptide 23, Lip-Arg-Thr-Thr-Arg-Ser-NH2]	1.89 ± 0.094	4.67 ± 0.23	2.36 ± 0.12	89	79	88	–
C[C@@H](O)[C@H](NC(=O)[C@H](CCCCN)NC(=O)CCCCC1CCSS1)C(=O)N[C@H](C(=O)N[C@@H](CCCCN)C(=O)N[C@@H](CO)C(N)=O)[C@@H](C)O (mixture of isomers) [Peptide 7, Lip-Lys-Thr-Thr-Lys-Ser-NH2]	0.58 ± 0.029	15.1 ± 0.75	11.7 ± 0.58	97	89	87	–
Ac-KTTKS-NH2 [Peptide 6, Ac-Lys-Thr-Thr-Lys-Ser-NH2]	2.92 ± 0.15	> 20	3.25 ± 0.16	97	88	86	–
CCCCCCCCCCCCCCCC(=O)N[C@@H](CCCNC(=N)N)C(=O)N[C@H](C(=O)N[C@H](C(=O)N[C@@H](CCCNC(=N)N)C(=O)N[C@@H](CO)C(=O)O)[C@@H](C)O)[C@@H](C)O [Peptide 20, Pal-Arg-Thr-Thr-Arg-Ser-OH] (HELM PEPTIDE1{[CCCCCCCCCCCCCCCC(=O)[*:2]].R.T.T.R.S}$$$$V2.0)	–	–	< 0.2	90	90	103	level of inhibition of plasmin activity (plasmin): above 90%; level of inhibition of urokinase activity (urokinase): above 90%; level of inhibition of thrombin activity (thrombin): above 90%

More lines, in order of falling IC50 (plasmin; [3]), values ahead:

IC50 (plasmin; [3]) [mM]	IC50 (urokinase) [mM]	IC50 (thrombin; [5]) [mM]	Compound	viability at 24 h, 1 µmol/L [1, 6] [%]	viability at 24 h, 10 µmol/L [1, 7] [%]	viability at 24 h, 100 µmol/L [1, 8] [%]	further results
9.08 ± 0.45	> 20	1.47 ± 0.074	Ac-RTTRS-NH2 [Peptide 22, Ac-Arg-Thr-Thr-Arg-Ser-NH2]	102	99	101	–
3.23 ± 0.16	4.57 ± 0.23	5.59 ± 0.28	C[C@@H](O)[C@H](NC(=O)[C@H](CCCNC(=N)N)NC(=O)CCCCC1CCSS1)C(=O)N[C@H](C(=O)N[C@@H](CCCCN)C(=O)N[C@@H](CO)C(N)=O)[C@@H](C)O (mixture of isomers) [Peptide 31, Lip-Arg-Thr-Thr-Lys-Ser- NH2]	107	112	117	–
0.69 ± 0.035	3.47 ± 0.17	–	C[C@@H](O)[C@H](NC(=O)[C@H](CCCCN)NC(=O)CCCCC1CCSS1)C(=O)N[C@H](C(=O)N[C@@H](CCCNC(=N)N)C(=O)N[C@@H](CO)C(N)=O)[C@@H](C)O (mixture of isomers) [Peptide 15, Lip-Lys-Thr-Thr-Arg-Ser-NH2]	–	–	–	IC50 (thrombin): 4.11 ± 0.21 mM; viability at 24 h, 1 µmol/L [1]: 112%; viability at 24 h, 10 µmol/L [1]: 122%; viability at 24 h, 100 µmol/L [1]: 115%
0.54 ± 0.027	< 0.2	2.51 ± 0.13	H-RTTKS-OH [Peptide 25, H-Arg-Thr-Thr-Lys-Ser-OH]	97	87	109	–
0.44 ± 0.022	12 ± 0.59	2.93 ± 0.14	H-RTTRS-NH2 [Peptide 21, H-Arg-Thr-Thr-Arg-Ser-NH2]	84	94	103	–
